Measurements taken from patent publication EP3165218A1, “WATER DISPERSIBLE GRANULATES CONTAINING OXIDIZED OR REDUCED FORMS OF COENZYME Q10” (INDENA S.p.A., priority 2015, dated 2017).

Assay: Water dispersability, visual evaluation
Assay type: physicochemical
Settings: quantity corresponding to 50 mg of Coenzyme Q10 in about 40 ml of tap water at room temperature; evaluated visually
Description: The water dispersability of the granulate of the invention was evaluated visually in comparison with unformulated Coenzyme Q10 administered as crystal powder. A quantity of the granulate of the invention corresponding to 50 mg of Coenzyme Q10 was dispersed in about 40 ml of tap water at room temperature. The product formed a very fine and homogeneous cloudy dispersion under mild agitation and no precipitation occurred.

SMILES: COC1=C(OC)C(=O)C(C/C=C(\C)CC/C=C(\C)CC/C=C(\C)CC/C=C(\C)CC/C=C(\C)CC/C=C(\C)CC/C=C(\C)CC/C=C(\C)CC/C=C(\C)CCC=C(C)C)=C(C)C1=O [crystalline Coenzyme Q10, Coenzyme Q10]
- water dispersability: the powder remained on the surface of water
